In a melting point compilation (Tetko et al.; mined from patent text by program, amines drawn as free bases though some values may be those of a salt):

melting point [°C] | SMILES
236 | Cc1csc(-c2cc(=O)n(C)c3ccc(C(=O)c4ccc(Cl)cc4)cc23)n1
94 | COC(=O)c1ccc(-c2ccc(C(F)(F)F)cc2)c(COC(C)=O)c1
85 to 86 | Cc1oc(-c2ccccc2)nc1COc1ccc(CCn2cc(CCC(=O)O)c(-c3ccccc3)n2)cc1
218 to 219 | Cc1ccc(-n2c(=O)n(OCc3ccccc3)c(=O)c3cc(F)c(Cl)nc32)cc1
86 | CCC(=O)Nc1ccccc1C(F)(F)F
39 to 41 | O=C(OCc1ccccc1)c1cc(Cl)nc(Cl)c1
228 | C=CS(=O)(=O)c1ccc(C(=O)O)cc1
183 to 185 | CS(=O)(=O)c1ccc(C2=C(c3ccccc3)CN(C3CCCCC3)C2=O)cc1
179 to 180 | C#CCc1c(C)nc2c(OCc3ccccc3S(C)(=O)=O)cccn12
> 300 | Cc1cccc(NC(=O)NC2C(=O)Nc3ccccc3NC2=O)c1
272 to 275 | Nc1ccc(Oc2ccc(P(=O)(c3ccccc3)c3ccccc3)c(Oc3ccc(N)cc3)c2)cc1
120 to 125 | Cc1nc2cccnc2nc1S(=O)Cc1ccccn1 (stereo not given)
176 to 178 | O=C(O)C(Cc1ccccc1)Oc1ccc2cc(-c3ccc(-c4ccccc4)[nH]3)ccc2c1 (stereo not given)
122 | Ic1nnnn1Cc1ccccc1
161 | COc1ccc(C#CC(=Nc2ccc(OC)cc2)N2CCN(Cc3ccccc3)CC2)cc1
93 to 94 | CCOC(=O)C(O)CCc1ccc(OC)c(OCc2ccccc2)c1 (stereo not given)

melting point [°C] | SMILES
108 | N[C@@H]1C(=C2OCc3ccccc32)[C@@H]2C[C@H]1C(=C1OCc3ccccc31)[C@H]2N
> 300 | COc1ccc(C2=NN(c3ccccn3)C(=O)CC2)cc1
192 to 194 | COc1ccccc1N1CCN(CC(O)CCN2C(=O)c3ccccc3C2=O)CC1 (stereo not given)
95 to 110 | CC(C)(C)c1ccc(C(O)(c2ccc(Cl)cc2)c2ncc[nH]2)cc1 (stereo not given)
139 to 140 | Cc1oc(-c2ccccc2)nc1COc1ccc2cc(CCCc3nnn[nH]3)oc2c1
94.6 to 98.8 | Cc1ccc(C)n1S(=O)(=O)c1ccc(CC(=O)c2ccccc2)cc1
63 to 65 | COc1ccc(OCc2ccccc2)cc1CC#N
221 to 223 | Cc1ccc(C(=O)n2nc(Nc3ccc(O)cc3)nc2N)cc1
210 to 215 | CCCc1cc(-c2ccc(C3COC(c4c(F)cccc4F)=N3)cc2)ccc1O (stereo not given)
215 to 218 | O=C(O)c1ccccc1N1CCN(CC(O)COc2cccc3ccccc23)CC1 (stereo not given)
129 to 130 | Nc1nc(-c2ccc(Cl)cc2)cc(C2CCN(C(=O)c3ccccc3)CC2)n1
83 to 85 | O=C(O)CCCCCCCCc1nc(-c2ccccc2)c(-c2ccccc2)o1
158 to 160 | N#CCc1c(-c2ccccc2)sc2ccc(Cl)cc12
157 to 158 | Fc1cccc2c(NCCc3cccs3)ccnc12
112 to 114 | CC(C)C(Br)=C(c1ccccc1)c1ccccc1
120 to 122 | Clc1ccc(-c2cc3ccccc3nc2Cl)c(Cl)c1

Second part, the compound before the results:

SMILES | melting point [°C]
O=C(Nc1cnc2sc(CO)nc2c1)c1cc2cc(C(F)(F)F)ccc2n1Cc1nccs1 | 282 to 283
NS(=O)(=O)c1cc(CO)cc(N2CCCC2)c1Oc1ccccc1 | 155
COC(=O)c1ccc2cc(C(=O)c3ccc4c(c3)C3(C)C5(C)CCC(C5)C3(C)O4)ccc2c1 (stereo not given) | 146
Cc1nc(-c2ccc(F)cc2)c(CO)c(C(C)C)c1C#N | 150
CC1(C)OC(=O)Nc2ccc(-c3ccc(C#N)n3CC(=O)O)cc21 | 207 to 209
Cc1c(S(=O)(=O)Nc2ccc(-c3ncco3)cc2S(C)(=O)=O)sc2ccc(F)cc12 | 207 to 208
CCOc1cc(OCC)nc(-c2ccc(C=O)cc2)n1 | 87 to 88
O=C1NCCc2c(OCC(O)CN3CCCCC3)cccc21 (stereo not given) | 162 to 164
O=C(c1cc(C(F)(F)F)cc(C(F)(F)F)c1)N1CCC(Nc2nc3cccnc3n2Cc2ccco2)CC1Cc1ccccc1 (stereo not given) | 109
COc1ccc(-c2cc(-c3ccc(F)cc3)ccc2C(=O)N2CCOCC2)cc1OC | 153
N=C(NO)c1cc(C(F)(F)F)cc(-c2ccc(Cl)cc2)n1 | 180 to 186
CCCn1c(=O)c2c(nc(CO)n2C)n(CCC)c1=O | 111 to 112
CC1(C)Cc2cccc(Oc3ccc(N)cc3Cl)c2O1 | 102 to 104
N#Cc1cc2cc(F)c(F)cc2o1 | 103
CCCc1c(OCc2ccc(C(=O)O)c(OCC)c2)ccc(C(C)=O)c1O | 145 to 150
CCc1c(C)sc2[nH]c(=O)c(=O)[nH]c12 | > 300
O=C1Nc2cc(Cl)ccc2Cn2cccc21 | 177 to 179
CCCCOc1ccc(S(C)(=O)=O)cc1-c1nc2c(CC)n(CCN3CCOCC3)nc2c(=O)[nH]1 | 235 to 238
CSc1nc2ccccc2n1C1CCNCC1 | 114 to 115
Cc1ccc(O)c(-c2csc(N(C)C)n2)c1 | 108 to 110
CCCc1cc(NCc2ccc3c(c2)OCO3)nc(SCC(N)=NO)n1 | 145 to 147
Fc1ccc(C2(c3ccc(F)cc3)CNC(c3cnccn3)=N2)cc1 | 144 to 146
CCN(CC)C[C@@H]1CCCN1CC(=O)N1c2ccccc2C(=O)Nc2cccnc21 | 192 to 193

SMILES | melting point [°C]
Cn1nc(-c2ccncc2)c(-c2ccc(Cl)cc2)c1N | 257 to 258
Cc1[nH]cnc1CSCCN=C(N)NCCNC(N)=NCCSCc1nc[nH]c1C | 201 to 203
COc1ccc(-n2cnnc2S(C)(=O)=O)cc1 | 191
c1ccc(-c2nn3c(c2-c2ccnc4cc(OCCN5CCOCC5)ccc24)CCCCC3)nc1 | 157 to 159
COc1cc(Cl)cc2c1CCC2 | 38 to 40
O=c1c2cc(F)c(N3CCCC3)nc2n(-c2cccc(C(F)(F)F)c2)c(=O)n1O | 136 to 138
COc1ccc(C=NCC(OC)OC)cc1OC | 50 to 52
CCOC(=O)c1conc1-c1cccc(C#N)c1 | 135 to 137
CC(=O)OC1CSC(Oc2cc(-c3ccc(F)nc3)cnc2F)C(OC(C)=O)C1OC(C)=O (stereo not given) | 135 to 136
OCc1ccc(-c2cc3c(Nc4ccc(F)c(Cl)c4)ncnc3[nH]2)cc1 | > 300
CCCCn1ccc(Cc2cnc(N[N+](=O)[O-])[nH]c2=O)cc1=O | 198 to 201
CCCCNC(=O)Oc1ccc(C(O)(CC)c2cccc(C(F)(F)F)c2)c(OC(=O)NCCCC)c1 (stereo not given) | 110 to 111
CC1(c2nnc(S(C)(=O)=O)s2)CC(F)(F)C1(F)Cl (stereo not given) | 63
COc1c(-c2ccc3cc(NS(C)(=O)=O)ccc3c2)cc(-n2ccc(=O)[nH]c2=O)cc1-c1ccc(C)o1 | 174 to 178
CN(C)Cc1cc(-c2ccccc2)c2c(n1)OCCN(Cc1cc(C(F)(F)F)cc(C(F)(F)F)c1)C2=O | 186 to 188
CCCCCCCCCCCC1=NCCN1CCO | 40 to 42
CC(C)(C)n1cc(C(=O)O)c(=O)c2cc(F)c(F)cc21 | > 260
Fc1ccc2[nH]cc(C3=CCN(CC4COc5ccc6ncncc6c5O4)CC3)c2c1 (stereo not given) | 233 to 235
CN1CCN(c2ccc([N+](=O)[O-])cc2C(F)(F)F)C1=O | 119 to 120
C[Si](C)(C)C#Cc1c(C(F)(F)F)nn(-c2c(Cl)cc(C(F)(F)F)cc2Cl)c1N | 120 to 123
N#Cc1cccc2c(C3CCCCC3)nccc12 | 94.7
CCCS(=O)c1sc(C(N)=O)c2c1-c1c(cnn1C)CC2 (stereo not given) | 194 to 195
O=C(O)CCCc1cc2nc(Cl)ccc2n1S(=O)(=O)c1ccc2ncccc2c1 | 153 to 162

SMILES | melting point [°C]
COc1cccc(-c2c(/C=C/C(=O)NCCCCc3cccnc3)ccc3ccc(OC)cc23)c1 | 108 to 110
O=C1CC(c2cccnc2)=NN1c1ccccc1 | 102 to 103
c1cncc(CC[C@H]2CNCCN2)c1 | 104 to 110
Cc1c(C=O)cc2c(c1C)OCC2 | 60
CSc1nccc(-c2c3cccnc3n3c(N)nccc23)n1 | 223 to 224
COc1ccc2c(c1)C(=O)NCc1c(-c3nc(C4CC4)no3)ncn1-2 | 245
CCOC(=O)c1cn(CC)c2nc(N3CCNCC3)c(F)cc2c1=O | 150 to 151
O=C(O)COc1ccc(-c2c(Cl)c(CN3C(=O)CCC3=O)nc3sc4c(c23)CCS(=O)(=O)C4)cc1 | 260 to 261
CN1C(=O)C=C(c2ccc3c(c2)CCCC3)C1=O | 104 to 107
COC(=O)C1(O)CC(OC(C)=O)C(NC(=O)Cc2cc(=O)oc3cc(OC(C)=O)ccc23)C(C(OC(C)=O)C(COC(C)=O)OC(C)=O)O1 (stereo not given) | 105
Cc1ccc(S(=O)(=O)N2Cc3cnc(C)n3-c3ccc(Cl)cc3C2c2ccccc2F)cc1 (stereo not given) | 152 to 153
CCc1ccc(C=CC(=O)NN2CC(=O)NC2=O)cc1Cl | 231 to 234
CC(C)(C)OC(=O)N[C@@H](CCC(=O)Oc1ccc(-c2nn(C3CCCC3)c3c(F)cccc23)cc1)C(=O)OC(C)(C)C | 92 to 93
CC(=O)NCc1ccc2ccn(C3CCN(CCCCc4ccc(F)cc4)CC3)c2c1 | 59 to 60
COC(=O)c1c(C)c(OC)cc(O[Si](C)(C)C(C)(C)C)c1C=O | 125 to 131
COC(=O)[C@@H](CCCc1ccc(OCc2nc(-c3ccco3)oc2C)c(OC)c1)OC(N)=O | 110 to 111
C#CCN1C(=O)CCC1C(N)=O (stereo not given) | 145 to 147
FC(F)(F)c1cccc(-c2ccnc3c(Cl)cnn23)c1 | 155 to 157
Cc1cc(N(C)S(C)(=O)=O)ccc1I | 85 to 87
N#Cc1ccc(N2CCC(O)CC2)c2ccccc12 | 126 to 127
Cc1cc(OCc2ccc(-c3ccc(OC(F)(F)F)cc3)nc2C)ccc1OC(C)(C)C(=O)O | 149 to 151
O=C1C=C(O[C@@H]2c3cc([N+](=O)[O-])ccc3OC(CF)(CF)[C@H]2O)CC1 (relative stereo) | 206 to 208
